# Target: BRD2(1,2) (Homo sapiens, UniProt P25440)
# Assay: BROMOscan ligand-binding assay
# Details: not given
# BRD2(1,2), sequence (P25440 71-455 limits assumed): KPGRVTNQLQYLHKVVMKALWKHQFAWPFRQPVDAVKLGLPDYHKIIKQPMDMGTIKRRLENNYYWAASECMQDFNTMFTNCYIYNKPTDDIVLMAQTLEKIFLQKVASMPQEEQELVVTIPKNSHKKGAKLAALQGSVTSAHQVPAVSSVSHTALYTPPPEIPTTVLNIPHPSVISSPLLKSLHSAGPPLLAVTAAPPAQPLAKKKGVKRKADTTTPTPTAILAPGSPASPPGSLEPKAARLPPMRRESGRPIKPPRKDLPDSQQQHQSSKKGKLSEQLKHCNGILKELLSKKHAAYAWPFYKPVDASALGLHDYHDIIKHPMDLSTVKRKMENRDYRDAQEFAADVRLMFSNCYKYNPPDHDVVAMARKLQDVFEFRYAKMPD
row,Compound,Kd [µM]
1,CCC(=O)N1CCOc2c(cc(-c3ccc(OC)c(OC)c3)cc2OCC2CCCN(C)C2)C1 (stereo not shown) [I-CBP112],6.9

# Target: T1, TAF1(2) (Homo sapiens, UniProt P21675)
# T1 sequence (P21675 1519-1628 limits assumed): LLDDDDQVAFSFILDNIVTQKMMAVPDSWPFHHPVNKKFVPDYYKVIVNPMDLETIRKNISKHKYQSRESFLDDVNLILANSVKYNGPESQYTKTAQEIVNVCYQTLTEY
# Assay: BROMOscan ligand-binding assay
# Details: not given
row,Compound,Kd [µM]
1,CCC(=O)N1CCOc2c(cc(-c3ccc(OC)c(OC)c3)cc2OCC2CCCN(C)C2)C1 (stereo not shown) [I-CBP112],45

# Target: BRD4(2) (Homo sapiens, UniProt O60885)
# Assay: BROMOscan ligand-binding assay
# Details: not given
row,Compound,Kd [µM]
1,CCC(=O)N1CCOc2c(cc(-c3ccc(OC)c(OC)c3)cc2OCC2CCCN(C)C2)C1 (stereo not shown) [I-CBP112],16

# Target: T2, GCN5L2 (Homo sapiens, UniProt Q92830)
# T2 sequence (Q92830 728-832 limits assumed): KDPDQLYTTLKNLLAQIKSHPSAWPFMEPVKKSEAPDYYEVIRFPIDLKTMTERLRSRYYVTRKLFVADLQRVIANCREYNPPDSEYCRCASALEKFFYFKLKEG
# Assay: BROMOscan ligand-binding assay
# Details: KD (BROMOscan), sheet prints no unit (nM)
# Description: (§6) BROMOscan is a binding assay based on the well-known KINOMEscan technology. This assay measures the binding of a DNA-tagged bromodomain to an immobilized BRD ligand. If an inhibitor is present, it will compete with the bromodomain binding to the immobilized ligand, resulting in reduction of a quantitative PCR (qPCR) signal in a dose-dependent manner.
row,Compound,Kd [nM]
1,CCC(=O)N1CCOc2c(cc(-c3ccc(OC)c(OC)c3)cc2OCC2CCCN(C)C2)C1 (stereo not shown) [I-CBP112],> 30000

# Same assay, conditions: KD, GCN5L2
row,Compound,Kd [nM]
1,CCC(=O)N1CCOc2c(cc(-c3ccc(OC)c(OC)c3)cc2OCC2CCCN(C)C2)C1 (stereo not shown) [I-CBP112],> 100000

# Target: BRD3(2) (Homo sapiens, UniProt Q15059)
# Sequence (Q15059 306-415 limits assumed): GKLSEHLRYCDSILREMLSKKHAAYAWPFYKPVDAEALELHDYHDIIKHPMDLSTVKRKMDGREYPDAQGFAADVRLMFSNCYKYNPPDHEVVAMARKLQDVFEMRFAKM
# Assay: BROMOscan ligand-binding assay
# Details: KD, BROMOscan Gene Symbol BRD3(2)
# Description: as §6
row,Compound,Kd [µM]
1,CCC(=O)N1CCOc2c(cc(-c3ccc(OC)c(OC)c3)cc2OCC2CCCN(C)C2)C1 (stereo not shown) [I-CBP112],20

# Target: BRD4(1) (Homo sapiens, UniProt O60885)
# Assay: BROMOscan ligand-binding assay
# Details: not given
row,Compound,Kd [µM]
1,CCC(=O)N1CCOc2c(cc(-c3ccc(OC)c(OC)c3)cc2OCC2CCCN(C)C2)C1 (stereo not shown) [I-CBP112],2.9

# Target: TDRD3 (Homo sapiens, UniProt Q9H7E2)
# Sequence (Q9H7E2 555-615 limits assumed, species assumed): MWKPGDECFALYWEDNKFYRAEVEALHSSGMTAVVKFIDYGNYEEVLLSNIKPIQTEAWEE
# Assay: Temperature shift assay (non-BRD reader domains)
# Assay type: binding
# Details: 10µM compound
# Experimental: (§1) Temperature shift assays have been described by Fedorov et al.[46]. Recombinant protein domains (bromodomain or kinases) at a concentration of 2 μM in 10 mM HEPES, pH 7.5, and 500 mM NaCl were mixed with 10 μM of chemical probes. Temperature-dependent protein unfolding profiles were measured using a Real-Time PCR Mx3005p machine (Stratagene).
# (§2) Wu et al., Supplementary figures and tables 14
# (§3) Supplementary Table 3: Selectivity screening data (non-BRD reader domains):
# (§4) Temperature shift assay data of BRD probes screened against a diver se panel of methyl-lysine
# (§5) reader domains. Compounds were screened a concentration of 10 µM. Shown are temperature
row,Compound,"Tm (C) 10µM, temperature shift [Kelvin]"
1,CCC(=O)N1CCOc2c(cc(-c3ccc(OC)c(OC)c3)cc2OCC2CCCN(C)C2)C1 (stereo not shown) [I-CBP112],-0.6

# System: RBBP1
# Assay: Temperature shift assay (non-BRD reader domains)
# Assay type: binding
# Details: 10µM compound
# Experimental: as §1, §2, §3, §4, §5
row,Compound,"Tm (C) 10µM, temperature shift [Kelvin]"
1,CCC(=O)N1CCOc2c(cc(-c3ccc(OC)c(OC)c3)cc2OCC2CCCN(C)C2)C1 (stereo not shown) [I-CBP112],-0.1

# Target: WDR5 (Homo sapiens, UniProt P61964)
# Assay: Temperature shift assay (non-BRD reader domains)
# Assay type: binding
# Details: 10µM compound
# Experimental: as §1, §2, §3, §4, §5
row,Compound,"Tm (C) 10µM, temperature shift [Kelvin]"
1,CCC(=O)N1CCOc2c(cc(-c3ccc(OC)c(OC)c3)cc2OCC2CCCN(C)C2)C1 (stereo not shown) [I-CBP112],-0.2

# Target: 53BP1 (Homo sapiens, UniProt Q12888)
# Sequence (Q12888 1484-1603 limits assumed, species assumed): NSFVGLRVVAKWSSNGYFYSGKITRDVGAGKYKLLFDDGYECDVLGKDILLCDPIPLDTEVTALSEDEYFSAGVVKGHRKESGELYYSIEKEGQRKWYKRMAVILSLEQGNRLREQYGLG
# Assay: Temperature shift assay (non-BRD reader domains)
# Assay type: binding
# Details: 10µM compound
# Experimental: as §1, §2, §3, §4, §5
row,Compound,"Tm (C) 10µM, temperature shift [Kelvin]"
1,CCC(=O)N1CCOc2c(cc(-c3ccc(OC)c(OC)c3)cc2OCC2CCCN(C)C2)C1 (stereo not shown) [I-CBP112],0.3

# Target: T3, SND1 (Homo sapiens, UniProt Q7KZF4)
# T3 sequence (Q7KZF4 729-787 limits assumed): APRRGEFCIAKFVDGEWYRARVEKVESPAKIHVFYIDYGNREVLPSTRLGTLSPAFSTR
# Assay: Temperature shift assay (non-BRD reader domains)
# Assay type: binding
# Details: 10µM compound
# Experimental: as §1, §2, §3, §4, §5
row,Compound,"Tm (C) 10µM, temperature shift [Kelvin]"
1,CCC(=O)N1CCOc2c(cc(-c3ccc(OC)c(OC)c3)cc2OCC2CCCN(C)C2)C1 (stereo not shown) [I-CBP112],-0.7

# Target: FXR1 (Homo sapiens, UniProt P51114)
# Sequence (P51114 2-132 limits assumed, species assumed): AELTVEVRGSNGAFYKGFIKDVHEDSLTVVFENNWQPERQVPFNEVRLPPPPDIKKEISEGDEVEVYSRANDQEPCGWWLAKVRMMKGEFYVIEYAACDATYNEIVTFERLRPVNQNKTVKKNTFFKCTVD
# Assay: Temperature shift assay (non-BRD reader domains)
# Assay type: binding
# Details: 10µM compound
# Experimental: as §1, §2, §3, §4, §5
row,Compound,"Tm (C) 10µM, temperature shift [Kelvin]"
1,CCC(=O)N1CCOc2c(cc(-c3ccc(OC)c(OC)c3)cc2OCC2CCCN(C)C2)C1 (stereo not shown) [I-CBP112],0.9

# Target: BRPF3 (Homo sapiens, UniProt Q9ULD4)
# Sequence (Q9ULD4 1076-1159 limits assumed, species assumed): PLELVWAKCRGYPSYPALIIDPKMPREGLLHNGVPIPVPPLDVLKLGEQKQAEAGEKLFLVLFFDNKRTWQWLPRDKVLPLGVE
# Assay: Temperature shift assay (non-BRD reader domains)
# Assay type: binding
# Details: 10µM compound
# Experimental: as §1, §2, §3, §4, §5
row,Compound,"Tm (C) 10µM, temperature shift [Kelvin]"
1,CCC(=O)N1CCOc2c(cc(-c3ccc(OC)c(OC)c3)cc2OCC2CCCN(C)C2)C1 (stereo not shown) [I-CBP112],0.0

# Target: T4, UHRF1 (Homo sapiens, UniProt Q96T88)
# T4 sequence (Q96T88 126-285 limits assumed): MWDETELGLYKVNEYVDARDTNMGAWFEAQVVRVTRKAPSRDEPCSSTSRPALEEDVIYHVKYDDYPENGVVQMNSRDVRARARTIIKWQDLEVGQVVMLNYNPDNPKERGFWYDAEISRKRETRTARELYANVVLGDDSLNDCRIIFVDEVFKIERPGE
# Assay: Temperature shift assay (non-BRD reader domains)
# Assay type: binding
# Details: 10µM compound
# Experimental: as §1, §2, §3, §4, §5
row,Compound,"Tm (C) 10µM, temperature shift [Kelvin]"
1,CCC(=O)N1CCOc2c(cc(-c3ccc(OC)c(OC)c3)cc2OCC2CCCN(C)C2)C1 (stereo not shown) [I-CBP112],0.0

# Target: EED (Homo sapiens, UniProt O75530)
# Sequence (O75530 whole entry, species assumed, the tested form may be a part): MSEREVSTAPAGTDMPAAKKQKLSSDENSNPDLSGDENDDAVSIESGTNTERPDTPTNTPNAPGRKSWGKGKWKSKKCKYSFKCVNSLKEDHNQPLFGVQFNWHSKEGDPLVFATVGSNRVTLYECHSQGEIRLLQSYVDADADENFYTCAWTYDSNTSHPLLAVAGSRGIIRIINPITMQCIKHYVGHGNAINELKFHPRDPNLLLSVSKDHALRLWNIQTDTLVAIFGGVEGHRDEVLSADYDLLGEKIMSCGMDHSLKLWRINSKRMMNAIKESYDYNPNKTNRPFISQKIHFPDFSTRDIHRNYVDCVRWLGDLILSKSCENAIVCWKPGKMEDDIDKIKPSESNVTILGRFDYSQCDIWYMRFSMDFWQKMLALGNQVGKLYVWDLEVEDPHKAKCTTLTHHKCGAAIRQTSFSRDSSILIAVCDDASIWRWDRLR
# Assay: Temperature shift assay (non-BRD reader domains)
# Assay type: binding
# Details: 10µM compound
# Experimental: as §1, §2, §3, §4, §5
row,Compound,"Tm (C) 10µM, temperature shift [Kelvin]"
1,CCC(=O)N1CCOc2c(cc(-c3ccc(OC)c(OC)c3)cc2OCC2CCCN(C)C2)C1 (stereo not shown) [I-CBP112],-0.5

# Target: T5, BAZ2B (Homo sapiens, UniProt Q9UIF8)
# T5 sequence (Q9UIF8 2060-2164 limits assumed): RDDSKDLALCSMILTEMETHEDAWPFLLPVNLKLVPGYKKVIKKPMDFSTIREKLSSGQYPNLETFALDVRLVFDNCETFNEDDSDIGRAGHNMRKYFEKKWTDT
# Assay: BROMOscan ligand-binding assay
# Details: KD, BROMOscan Gene Symbol BAZ2B
# Description: as §6
row,Compound,Kd [µM]
1,CCC(=O)N1CCOc2c(cc(-c3ccc(OC)c(OC)c3)cc2OCC2CCCN(C)C2)C1 (stereo not shown) [I-CBP112],28

# Target: BRD4(fl) (Homo sapiens, UniProt O60885)
# Assay: BROMOscan ligand-binding assay
# Details: not given
row,Compound,Kd [µM]
1,CCC(=O)N1CCOc2c(cc(-c3ccc(OC)c(OC)c3)cc2OCC2CCCN(C)C2)C1 (stereo not shown) [I-CBP112],2.85

# Target: BRD4(1,2) (Homo sapiens, UniProt O60885)
# Assay: BROMOscan ligand-binding assay
# Details: not given
row,Compound,Kd [µM]
1,CCC(=O)N1CCOc2c(cc(-c3ccc(OC)c(OC)c3)cc2OCC2CCCN(C)C2)C1 (stereo not shown) [I-CBP112],11

# Target: T6, BRPF1 (Homo sapiens, UniProt P55201)
# T6 sequence (P55201 628-732 limits assumed): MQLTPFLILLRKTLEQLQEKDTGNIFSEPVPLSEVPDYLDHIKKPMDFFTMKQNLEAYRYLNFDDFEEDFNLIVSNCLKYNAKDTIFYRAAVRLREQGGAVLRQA
# Assay: BROMOscan ligand-binding assay
# Details: KD, BRPF1
# Description: as §6
row,Compound,Kd [µM]
1,CCC(=O)N1CCOc2c(cc(-c3ccc(OC)c(OC)c3)cc2OCC2CCCN(C)C2)C1 (stereo not shown) [I-CBP112],20

# Target: T7, BRD9 (Homo sapiens, UniProt Q9H8M2)
# T7 sequence (Q9H8M2 136-240 limits assumed): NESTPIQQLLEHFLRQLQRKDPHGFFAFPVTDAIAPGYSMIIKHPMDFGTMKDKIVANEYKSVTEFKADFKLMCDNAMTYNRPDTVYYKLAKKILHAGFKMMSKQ
# Assay: BROMOscan ligand-binding assay
# Details: KD, BROMOscan Gene Symbol BRD9
# Description: as §6
row,Compound,Kd [µM]
1,CCC(=O)N1CCOc2c(cc(-c3ccc(OC)c(OC)c3)cc2OCC2CCCN(C)C2)C1 (stereo not shown) [I-CBP112],25

# Target: SMARCA2 (Homo sapiens, UniProt P51531)
# Sequence (P51531 1-1572 isoform P51531-2): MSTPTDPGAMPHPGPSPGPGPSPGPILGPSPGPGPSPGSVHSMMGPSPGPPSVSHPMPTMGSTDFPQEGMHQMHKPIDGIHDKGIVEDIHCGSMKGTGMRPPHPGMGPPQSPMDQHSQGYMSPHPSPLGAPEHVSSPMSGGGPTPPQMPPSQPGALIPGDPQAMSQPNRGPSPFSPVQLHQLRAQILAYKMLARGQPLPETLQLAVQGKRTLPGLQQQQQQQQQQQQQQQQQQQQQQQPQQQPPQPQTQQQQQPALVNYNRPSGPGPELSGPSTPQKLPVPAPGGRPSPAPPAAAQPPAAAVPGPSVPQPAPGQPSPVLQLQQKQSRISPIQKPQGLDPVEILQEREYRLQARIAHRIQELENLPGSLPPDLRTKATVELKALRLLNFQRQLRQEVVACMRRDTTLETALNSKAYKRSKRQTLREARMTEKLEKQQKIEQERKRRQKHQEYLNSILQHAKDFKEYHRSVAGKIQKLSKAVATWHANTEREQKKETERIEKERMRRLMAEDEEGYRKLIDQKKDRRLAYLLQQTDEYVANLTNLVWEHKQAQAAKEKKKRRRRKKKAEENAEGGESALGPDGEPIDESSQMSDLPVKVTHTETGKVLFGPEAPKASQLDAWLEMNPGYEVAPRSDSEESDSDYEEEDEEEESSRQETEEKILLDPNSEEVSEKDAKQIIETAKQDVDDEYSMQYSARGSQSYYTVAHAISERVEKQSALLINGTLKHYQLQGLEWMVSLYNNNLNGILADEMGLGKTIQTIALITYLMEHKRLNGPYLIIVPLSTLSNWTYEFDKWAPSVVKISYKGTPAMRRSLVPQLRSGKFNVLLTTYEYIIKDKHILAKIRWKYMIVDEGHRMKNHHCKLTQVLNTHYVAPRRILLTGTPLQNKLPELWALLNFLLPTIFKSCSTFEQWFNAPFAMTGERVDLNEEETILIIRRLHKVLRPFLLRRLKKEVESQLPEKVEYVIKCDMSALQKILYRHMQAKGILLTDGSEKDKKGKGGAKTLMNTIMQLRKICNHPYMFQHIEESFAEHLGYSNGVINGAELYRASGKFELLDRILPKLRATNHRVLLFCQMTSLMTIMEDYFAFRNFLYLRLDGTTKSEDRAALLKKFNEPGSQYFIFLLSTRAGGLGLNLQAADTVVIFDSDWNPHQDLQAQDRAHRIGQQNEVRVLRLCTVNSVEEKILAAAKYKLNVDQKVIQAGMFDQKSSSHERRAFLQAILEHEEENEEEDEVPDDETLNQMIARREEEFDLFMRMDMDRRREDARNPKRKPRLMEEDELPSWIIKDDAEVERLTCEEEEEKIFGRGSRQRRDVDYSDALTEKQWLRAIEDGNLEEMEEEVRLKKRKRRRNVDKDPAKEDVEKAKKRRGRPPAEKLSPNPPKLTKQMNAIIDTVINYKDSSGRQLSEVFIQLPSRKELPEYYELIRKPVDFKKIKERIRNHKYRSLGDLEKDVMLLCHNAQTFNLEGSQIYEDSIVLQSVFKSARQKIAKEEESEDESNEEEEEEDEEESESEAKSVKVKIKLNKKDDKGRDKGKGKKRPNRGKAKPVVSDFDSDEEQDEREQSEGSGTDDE
# Assay: BROMOscan ligand-binding assay
# Details: KD (BROMOscan), sheet prints no unit (nM)
# Description: as §6
row,Compound,Kd [nM]
1,CCC(=O)N1CCOc2c(cc(-c3ccc(OC)c(OC)c3)cc2OCC2CCCN(C)C2)C1 (stereo not shown) [I-CBP112],> 30000

# Same assay, conditions: KD, SMARCA2
row,Compound,Kd [nM]
1,CCC(=O)N1CCOc2c(cc(-c3ccc(OC)c(OC)c3)cc2OCC2CCCN(C)C2)C1 (stereo not shown) [I-CBP112],> 100000

# Target: BRD3(1) (Homo sapiens, UniProt Q15059)
# Sequence (Q15059 34-140 limits assumed): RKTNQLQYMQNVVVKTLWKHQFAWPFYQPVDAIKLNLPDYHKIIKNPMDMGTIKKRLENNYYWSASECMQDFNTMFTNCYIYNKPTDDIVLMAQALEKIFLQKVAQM
# Assay: BROMOscan ligand-binding assay
# Details: KD, BROMOscan Gene Symbol BRD3(1)
# Description: as §6
row,Compound,Kd [µM]
1,CCC(=O)N1CCOc2c(cc(-c3ccc(OC)c(OC)c3)cc2OCC2CCCN(C)C2)C1 (stereo not shown) [I-CBP112],5.4

# Target: CREBBP (Homo sapiens, UniProt Q92793)
# Sequence (Q92793 1085-1192 limits assumed): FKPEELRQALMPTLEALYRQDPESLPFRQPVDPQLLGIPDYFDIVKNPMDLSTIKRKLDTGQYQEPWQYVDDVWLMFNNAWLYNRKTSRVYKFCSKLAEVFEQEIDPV
# Assay: BROMOscan ligand-binding assay
# Details: KD, CREBBP
# Description: as §6
row,Compound,Kd [µM]
1,CCC(=O)N1CCOc2c(cc(-c3ccc(OC)c(OC)c3)cc2OCC2CCCN(C)C2)C1 (stereo not shown) [I-CBP112],0.06

# Target: T8, ATAD2A (Homo sapiens, UniProt Q6PL18)
# T8 sequence (Q6PL18 980-1092 limits assumed): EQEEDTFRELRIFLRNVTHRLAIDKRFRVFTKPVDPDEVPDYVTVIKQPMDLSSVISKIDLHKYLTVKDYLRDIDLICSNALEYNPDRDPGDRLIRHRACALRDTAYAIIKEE
# Assay: BROMOscan ligand-binding assay
# Details: KD (BROMOscan), sheet prints no unit (nM)
# Description: as §6
row,Compound,Kd [nM]
1,CCC(=O)N1CCOc2c(cc(-c3ccc(OC)c(OC)c3)cc2OCC2CCCN(C)C2)C1 (stereo not shown) [I-CBP112],> 30000

# Same assay, conditions: KD, BROMOscan Gene Symbol ATAD2A
row,Compound,Kd [nM]
1,CCC(=O)N1CCOc2c(cc(-c3ccc(OC)c(OC)c3)cc2OCC2CCCN(C)C2)C1 (stereo not shown) [I-CBP112],> 100000

# Target: BRDT(1,2) (Homo sapiens, UniProt Q58F21)
# Assay: BROMOscan ligand-binding assay
# Details: KD, BROMOscan Gene Symbol BRDT(1,2)
# Description: as §6
row,Compound,Kd [µM]
1,CCC(=O)N1CCOc2c(cc(-c3ccc(OC)c(OC)c3)cc2OCC2CCCN(C)C2)C1 (stereo not shown) [I-CBP112],9.6
